Laboratory results taken from publication PMC7719157 (Pharmacology Research & Perspectives, 2020).

Columns and labels:
PPARγ [1] = molecular target: T1, PPARγ (Homo sapiens, UniProt P37231); test: TR-FRET coactivator; assay type: biochemical
T1 sequence (P37231 223-505 limits assumed): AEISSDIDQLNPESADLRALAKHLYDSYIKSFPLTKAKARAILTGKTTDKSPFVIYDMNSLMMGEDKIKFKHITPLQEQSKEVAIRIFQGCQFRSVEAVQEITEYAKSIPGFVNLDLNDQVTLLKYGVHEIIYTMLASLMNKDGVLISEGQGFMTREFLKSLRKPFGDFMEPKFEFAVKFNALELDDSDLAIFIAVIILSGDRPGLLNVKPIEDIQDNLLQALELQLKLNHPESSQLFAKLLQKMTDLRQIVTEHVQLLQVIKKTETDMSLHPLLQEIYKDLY

PPARγ [2] = molecular target: T1, PPARγ; test: [3H]rosiglitazone radioligand displacement; assay type: binding
PPARδ = molecular target: T2, PPARδ (Homo sapiens, UniProt Q03181); test: AlphaScreen coactivator; assay type: biochemical
T2 sequence (Q03181 171-441 limits assumed): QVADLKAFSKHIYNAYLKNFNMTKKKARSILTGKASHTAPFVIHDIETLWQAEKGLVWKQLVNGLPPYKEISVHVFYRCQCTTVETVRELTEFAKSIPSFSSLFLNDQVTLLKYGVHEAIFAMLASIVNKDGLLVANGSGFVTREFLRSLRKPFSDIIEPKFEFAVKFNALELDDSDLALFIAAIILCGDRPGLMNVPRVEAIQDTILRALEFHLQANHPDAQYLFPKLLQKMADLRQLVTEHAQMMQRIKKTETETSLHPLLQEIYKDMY

PPARα = molecular target: T3, PPARα (Homo sapiens, UniProt Q07869); test: AlphaScreen coactivator; assay type: biochemical
T3 sequence (Q07869 196-468 limits assumed): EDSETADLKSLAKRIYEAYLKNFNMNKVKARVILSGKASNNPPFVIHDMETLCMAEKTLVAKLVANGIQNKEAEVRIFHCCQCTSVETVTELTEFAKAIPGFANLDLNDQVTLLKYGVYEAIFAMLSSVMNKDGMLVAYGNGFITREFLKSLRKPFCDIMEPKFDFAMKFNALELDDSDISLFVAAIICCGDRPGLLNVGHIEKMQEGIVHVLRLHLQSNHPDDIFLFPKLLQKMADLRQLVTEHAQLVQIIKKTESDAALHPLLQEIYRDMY

Row | IC50 (PPARγ [1]) | Ki (PPARγ [2]) | IC50 (PPARδ) | IC50 (PPARα) | Structure (SMILES)
1 | 0.00452 µM | – | – | – | O=C(Nc1ccccc1)c1cc([N+](=O)[O-])ccc1Cl [GW9662]
2 | – | 0.14 µM | 48 µM | 46 µM | CC(C)(C)c1ccc(-c2nc(CBr)nn2-c2cccc(O)c2)cc1 [MM902, 3‐(3‐(bromomethyl)‐5‐(4‐(tert‐butyl) phenyl)‐1H‐1,2,4‐triazol‐1‐yl) phenol]
